Reference: patent US20220040123A1, “ANTI-HELICOBACTER FOOD COMPOSITION COMPRISING BETA-CARYOPHYLLENE” (priority 2018, published 2022)

What was measured:
[1] = tested on: Helicobacter pylori 16S rRNA; assay: qPCR test for gastric mucosal Helicobacter pylori (16S rRNA); type: in vivo, C57BL/6 mouse; conditions: for Gene expression level (Ct): 28 days, 16S rRNA vs 18SrRNA, control G3 13.80
Protocol: (§1) In order to compare the Helicobacter pylori eradiation effect between beta-caryophyllene and the antibiotics that are used for treatment of Helicobacter pylori infection, an animal test was performed using the test groups and doses shown in Table 1 below.
(§2) Each test substance was suspended in an excipient according to the dose and administered to each mouse once a day at the same time every day for a total of 28 days in a dose of 5 ml per kg mouse (C57BL/6 mouse) by oral gavage method.
After completion of the test, RNA was collected from the aseptically collected gastric mucosal tissue, and then synthesized into DNA to perform a PCR test. The marker gene used in this experiment was 16S rRNA, which is specifically found only in H. pylori and is not found in humans or mice. 18SrRNA was used as a loading control gene of the used DNA sample. The Ct value for each gene was obtained by reacting the fluorescent intercalator SYBR Green with the corresponding primer and DNA, and then calculated by relative quantification, and the results are shown in Table 4 below.

[2] = tested on: cagA, vacA and secA genes; assay: RT-PCR of cagA, vacA and secA gene expression; type: cell-based, Helicobacter pylori; conditions: 31.25, 62.5, 125, 250 and 500 μg/ml
Protocol: In addition, in order to examine changes in expression of cagA, vacA and secA genes, H. pylori was treated with beta-caryophyllene at concentrations of 31.25, 62.5, 125, 250 and 500 μg/ml, and then RT-PCR was performed.

[3] = tested on: flhA, flaA, flaB and flgE genes; assay: RT-PCR of flagella-associated genes of H. pylori; type: cell-based, Helicobacter pylori; conditions: 31.25-500 μg/ml
Protocol: In order to evaluate the effect of beta-caryophyllene treatment on the inhibition of flagella of H. pylori, changes in the expression of the flhA, flaA, flaB and flgE genes which constitute the flagella or are associated with the function of the flagella were examined, and the results are shown in FIG. 9. Specifically, H. pylori was treated with beta-caryophyllene at concentrations of 31.25, 62.5, 125, 250 and 500 μg/ml, and expression of the genes was analyzed by RT-PCR.

[4] = tested on: urease A and urease B; assay: Expression of urease protein in H. pylori; type: cell-based, Helicobacter pylori; conditions: 125, 250 and 500 μg/ml, all treatment concentrations
Protocol: In order to evaluate the effect of beta-caryophyllene treatment on the inhibition of H. pylori urease, H. pylori was treated with beta-caryophyllene at concentrations of 125, 250 and 500 μg/ml, and changes in the expression of urease protein were analyzed, and the results are shown in FIG. 7.

[5] = tested on: Helicobacter pylori-infected people; assay: Human test, changes in digestive system symptoms; type: in vivo; conditions: 8 weeks
Protocol: In order to verify the anti-Helicobacter pylori effect of beta-caryophyllene, beta-caryophyllene was administered to 16 semi-healthy people (Helicobacter pylori-infected people) complaining of gastrointestinal disorders, at a dose of 126 mg/day once a day for 8 weeks before meals, and changes in digestive system symptoms (nausea, epigastric pain, heartburn, acid regurgitation, and indigestion) were evaluated, and the results are shown in Table 5.

[6] = tested on: H. pylori; assay: Minimum growth inhibitory concentration test (absorbance at 650 nm after 72 hours); type: cell-based, Helicobacter pylori (ATCC 49503); conditions: Mueller Hinton broth with 10% bovine serum, absorbance 650 nm
Protocol: For H. pylori culture, an H. pylori (ATCC 49503) strain was inoculated on a Brucella agar medium containing 10% bovine serum and antibiotics (vancomycin, esfsuldin, trimethoprim, and amphotericin B), and cultured in an anaerobic incubator which maintains 10% CO2, 5% O2, 85% N2, and 97% or more humidity, at 37° C. for 72 hours. For a minimum growth inhibitory concentration test, each of 7.81, 15.63, 31.25, 62.5, 125, 250 and 500 μg and 1, 2 and 4 mg of beta-caryophyllene was added to a medium obtained by adding 10% bovine serum to Mueller Hinton broth, and then cultured in a CO2 incubator at a relative humidity of 100% for 72 hours. Each of the bacterial solutions cultured for 72 hours was measured for absorbance at 650 nm using a spectrophotometer to determine the minimum inhibitory concentration (MIC) of beta-caryophyllene, and the results are graphically shown in FIG. 2.

[7] = tested on: H. pylori; assay: Gastric rapid urease test (CLO test), therapeutic rate; type: in vivo, C57BL/6 mouse; conditions: oral gavage, 28 days, control G3 30%
Protocol: as §1, §2
The rapid urease test is based on the principle according to which, when H. pylori is present in gastric mucosa, the bacteria produce ammonia by secreting urease while proliferating in a medium containing a test reagent and a pH indicator, and a change in the color of the pH indicator is examined.
The gastric mucosal tissue extracted on the day of the autopsy was collected aseptically and tested using a Campylobacter-like organism (CLO) test reagent. The tissue was incubated in an incubator at 37° C. for 2 hours, the resulting color changed from yellow to red, the sample was judged as positive. The number of mice determined to be positive was calculated as a percentage, and the therapeutic rate for H. pylori eradication by sample treatment was obtained using the following equation, and the results are shown in Table 2 below.
Therapeutic rate (%)=(number of samples−number of positive samples)/number of samples×100

[8] = 126 mg/day, after vs before intake

Compound: C=C1CC/C=C(\C)CC[C@@H]2[C@@H]1CC2(C)C [beta-caryophyllene]
- Gene expression level (Ct) ([1]; G6: 100 mg/kg/day): 11.99 Ct
- decrease of Ct value compared to G3 ([1]; G6: 100 mg/kg/day, not statistically significant): 13.1%
- Gene expression level (Ct) ([1]; G7: 200 mg/kg/day): 9.40 Ct
- decrease of Ct value compared to G3 ([1]; G7: 200 mg/kg/day, not statistically significant): 31.9%
- Gene expression level (Ct) ([1]; G8: 500 mg/kg/day): 5.71 Ct
- decrease of Ct value compared to G3 ([1]; G8: 500 mg/kg/day, statistically significant): 58.6%
- transcription of other genes, including UDP-galactose 4-epimerase (control) [2]: did not affect
- transcription of toxin protein gene cagA [2]: tended to be inhibited
- transcription of toxin protein gene vacA [2]: tended to be inhibited
- expression of flgE gene [3]: decreased
- expression of flhA gene [3]: decreased
- expression of urease A (Urease α) [4]: significantly decreased
- expression of urease B (Urease β) [4]: significantly decreased
- Nausea, After intake ([5]; 126 mg/day once a day, 16 people, before intake 0.19): 0.06
- Acid regurgitation, After intake ([5]; 126 mg/day once a day, 16 people, before intake 0.25): 0.06
- Indigestion, After intake ([5]; 126 mg/day once a day, 16 people, before intake 0.56): 0.13
- Heartburn, After intake ([5]; 126 mg/day once a day, 16 people, before intake 0.88): 0.38
- Epigastric pain, After intake ([5]; 126 mg/day once a day, 16 people, before intake 1.31): 0.44
- Acid regurgitation, Improvement rate (%) [5, 8]: 76%
- Epigastric pain, Improvement rate (%) [5, 8]: 66.4%
- Heartburn, Improvement rate (%) [5, 8]: 56.8%
- Indigestion, Improvement rate (%) [5, 8]: 76.8%
- Nausea, Improvement rate (%) [5, 8]: 68.4%
- improvement of Helicobacter pylori-induced gastrointestinal disorders ([5]; 126 mg/day, all five symptoms of Table 5): ≥ 56%
- minimum inhibitory concentration (MIC) against H. pylori [6]: 1 mg
- Therapeutic % ([7]; G6: 100 mg/kg/day): 60%
- Therapeutic % ([7]; G7: 200 mg/kg/day): 56%
- Therapeutic % ([7]; G8: 500 mg/kg/day): 80%
